Results on one compound are retold here after patent US20240009271A1, “METHODS OF TREATING METASTATIC CANCERS USING AXL DECOY RECEPTORS” (Aravive Inc, priority 2017, published 2024).

The subject of this assay is MDA-MB-231 Axl+ TNBC cells. Kind of assay: MDA-MB-231 Matrigel cell invasion assay. It is filed as cell-based. As to conditions: Homo sapiens. As for the experimental part: Inhibition of GAS6-induced invasion/migration was evaluated in models for triple-negative breast (MDA-MB-231) and ovarian (OVCAR8) cancers using the Corning® Matrigel® or collagen invasion assays, respectively, and using an AXL decoy receptor which comprises a soluble AXL variant polypeptide comprising amino acid changes relative to wild-type AXL sequence (SEQ ID NO:1) at the following positions: (a) glycine 32; (b) aspartic acid 87; (c) alanine 72; (d) valine 92; and (e) glycine 127, lacking the AXL transmembrane domain, lacking a functional FN domain, and comprising an Fc domain linked to the soluble AXL variant polypeptide by a peptide linker (hereinafter referred to as AVB-S6-500).
AVB-S6-500 and MDA-MB-231 Axl^+ TNBC cells in serum free media were seeded in the top of a Matrigel-coated Boyden Chamber. Media with serum as a chemo-attractant was added to the chamber bottom. After 24 hours incubation, the number of cells that migrated across the Matrigel were counted and expressed as the fraction of invasive cells relative to a PBS control (FIG. 1A).
Representative images from the AVB-S6-500 treated MDA-MB-231 cells are depicted in FIG. 2.

`COc1cc(Nc2c(C#N)cnc3cc(OCCCN4CCN(C)CC4)c(OC)cc23)c(Cl)cc1Cl` [Bosutinib, bosutinib]: the half-maximal inhibitory concentration (IC50) (usually the concentration that gives 50% inhibition) is 24 nM. This lies in the double-digit nanomolar range.
